In paper PMC1241435 (Environmental Health Perspectives, 2003):

Assays:
FMO I = target: T1, FMO I (Homo sapiens, UniProt Q01740); assay: sulfoxide formation by microsomes of cells expressing the recombinant enzyme; type: cell-based
T1 sequence (Q01740 2-532): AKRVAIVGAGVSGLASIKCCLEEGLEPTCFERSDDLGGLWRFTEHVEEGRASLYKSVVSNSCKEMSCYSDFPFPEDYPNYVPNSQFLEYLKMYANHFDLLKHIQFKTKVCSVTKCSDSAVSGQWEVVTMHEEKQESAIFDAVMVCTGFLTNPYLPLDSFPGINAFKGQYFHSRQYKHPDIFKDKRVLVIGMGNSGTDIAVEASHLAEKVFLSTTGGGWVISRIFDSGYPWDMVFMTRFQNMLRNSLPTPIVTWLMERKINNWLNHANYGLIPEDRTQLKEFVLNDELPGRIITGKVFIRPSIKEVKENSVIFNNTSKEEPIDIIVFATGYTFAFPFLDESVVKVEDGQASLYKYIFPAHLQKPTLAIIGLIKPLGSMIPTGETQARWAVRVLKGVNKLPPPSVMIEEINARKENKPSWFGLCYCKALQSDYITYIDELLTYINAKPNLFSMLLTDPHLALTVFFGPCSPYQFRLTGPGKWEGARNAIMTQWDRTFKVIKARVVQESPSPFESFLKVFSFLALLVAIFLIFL

CYP 1A1 = target: T2, CYP 1A1 (Homo sapiens, UniProt P04798); assay: as above; type: cell-based
T2 sequence (P04798 1-512): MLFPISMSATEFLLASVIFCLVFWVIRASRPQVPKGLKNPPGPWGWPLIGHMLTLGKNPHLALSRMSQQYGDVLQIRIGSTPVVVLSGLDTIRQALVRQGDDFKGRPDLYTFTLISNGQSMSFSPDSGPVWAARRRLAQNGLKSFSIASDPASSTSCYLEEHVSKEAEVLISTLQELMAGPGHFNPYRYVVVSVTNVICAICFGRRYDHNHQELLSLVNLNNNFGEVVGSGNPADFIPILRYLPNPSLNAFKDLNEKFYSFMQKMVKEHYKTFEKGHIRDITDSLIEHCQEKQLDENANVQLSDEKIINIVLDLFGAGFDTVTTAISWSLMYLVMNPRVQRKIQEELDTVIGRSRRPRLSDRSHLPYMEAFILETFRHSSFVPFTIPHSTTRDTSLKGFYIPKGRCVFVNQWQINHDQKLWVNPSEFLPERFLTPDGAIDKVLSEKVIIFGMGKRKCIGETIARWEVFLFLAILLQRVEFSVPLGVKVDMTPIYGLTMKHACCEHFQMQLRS

## COP(=S)(OC)Oc1ccc(SC)c(C)c1 [fenthion, O,O-dimethyl-O-(4-methylmercapto)-3-methylphenylthio-phosphate]
FMO I
  sulfoxide formation by microsomes of cells expressing the recombinant enzyme: 62.4 nmol/min/mg protein
CYP 1A1
  sulfoxide formation by microsomes of cells expressing the recombinant enzyme: 3.6 nmol/min/mg protein
